Experimental data reported in US10555987B2, “GHRH agonists for the treatment of ischemic disorders” (UNIVERSITY OF MIAMI, priority 2012, dated 2020).
“Also recorded” adds a separate entry of the source. Non-standard residues stand in square brackets, D forms with d. Residues, ends and D or L forms follow the SMILES beside them. *: point of attachment. Desaminotyrosyl = O=C(CCc1ccc(O)cc1)*; NMeY = CN[C@@H](Cc1ccc(O)cc1)C(=O)O; Agmatine = N=C(N)NCCCCN*; Nle = CCCC[C@H](N)C(=O)O; Orn = NCCC[C@H](N)C(=O)O; Abu = CC[C@H](N)C(=O)O

How the values were obtained:
[1] = test system: myocardial infarction (Fisher-344 rats); assay: Morphometric analysis of infarct size, rat MI model (Example 13); assay type: in vivo; details: 50 μg/kg s.c. twice daily for 4 weeks; mean ± SEM
Protocol: (§1) Myocardial infarction (MI) was induced by permanent ligation of the left coronary artery in female 6-month-old Fisher-344 rats. Animals were randomly assigned to receive placebo (DMSO+propylene glycol) or one of the GHRH-agonists (JI-38, MR-356/P-20356, MR-409/P-27409, all 50 μg/kg), starting 4 weeks post-MI. All treatment was given subcutaneously twice daily for 4 weeks.
Rat hearts were processed using routine histological procedures. Samples were fixed in formalin.
(§2) Paraffin sections were deparaffinized and rehydrated by immersion in xylene followed by a graded series of ethanol. Antigen retrieval was performed by a heat-induced method with citrate buffer (Dako, Carpinteria, Calif.). After blocking with 10% normal donkey serum, sections were incubated with a primary antibody at 37° C. for 1 hour, followed by application of secondary antibody. Omission of the primary antibodies on parallel sections was used as negative control. Nuclei were counterstained with DAPI (Invitrogen, Carlsbad, Calif.). The total numbers of positively-stained cells (c-kit, CD45, phospho-histone H3 [pH3]) were quantified per slide to calculate the number of cells per section on each sample. Morphometric analysis was performed using Adobe Photoshop CS3 (San Jose, Calif.).

[2] = test system: GH release; assay: GH releasing potency in vivo, intravenous administration (Example 14, Table 13); parameters: species or system rat; details: i.v.; for Relative potency, 5 min / Relative potency, 15 min: JI-38 = 1; for Serum GH level at selected time after injection (ng/ml), 0 min / Serum GH level at selected time after injection (ng/ml), 5 min / Serum GH level at selected time after injection (ng/ml), 15 min: dose 1 μg/kg, mean ± SEM
How it was run: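 Potency is expressed relative to GHRH(1-29)NH2 and JI-38 (each = 1), via equivalent GHRH(1-29)NH2 dose read from a standard curve. Peptides in 5% mannitol given i.v. or s.c. to anaesthetised male Sprague-Dawley rats (200-250 g); serum GH measured by ELISA at selected times.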

[3] = test system: myocardial infarction (Fisher-344 rats); assay: Immunostaining of heart tissue (pH3, c-kit, arterioles), rat MI model (Example 13); assay type: in vivo; details: for c-kit (positive cells in the heart) / phospho H3 (positive cells in the heart): 50 μg/kg s.c. twice daily for 4 weeks, mean ± SEM; for number of arterioles: isolectin / SMA22a co-staining of heart sections
Protocol: as §1, §2
Heart sections were co-stained with isolectin (endothelial cell marker) and vascular smooth muscle (SMA22a) to identify arterioles which play a crucial role in cardiac repair. […] An inverse correlation between number of arterioles and infarct size was observed (FIG. 5C).

[4] = test system: GH release; assay: In vivo endocrine activity, GH release after intravenous administration (Table 8); details: rat, i.v. injection
[5] = molecular target: T1, GHRH receptor (Homo sapiens, UniProt Q02643); assay: GHRH receptor binding, competition with 125I-labeled JV-1-42, human pituitary membrane homogenates (Table 5); parameters: Normal human pituitaries were purchased from the National Hormone and Peptide Program; tissue National Hormone and Peptide Program (A.F. Parlow, Harbor-UCLA Medical Center, Torrance, Calif.); host or cells: normal human pituitary, membrane fraction; details: for Relative affinity (Binding potency) vs GHRH: GHRH(1-29) = 1, Table 5; for Relative affinity (Binding potency) vs JI-38: JI-38 = 1, Table 5
T1 sequence (Q02643 23-423): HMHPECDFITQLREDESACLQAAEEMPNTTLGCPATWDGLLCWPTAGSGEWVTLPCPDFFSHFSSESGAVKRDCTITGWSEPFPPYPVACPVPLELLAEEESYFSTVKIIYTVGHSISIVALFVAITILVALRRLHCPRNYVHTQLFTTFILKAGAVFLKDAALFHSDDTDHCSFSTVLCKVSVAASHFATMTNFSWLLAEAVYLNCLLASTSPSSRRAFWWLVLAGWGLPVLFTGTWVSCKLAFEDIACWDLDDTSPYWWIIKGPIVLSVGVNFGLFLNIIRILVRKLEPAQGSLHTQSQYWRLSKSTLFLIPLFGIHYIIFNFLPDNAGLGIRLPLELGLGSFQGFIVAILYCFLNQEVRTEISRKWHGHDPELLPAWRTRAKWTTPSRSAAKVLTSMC

[6] = test system: myocardial infarction (Fischer 344 rats); assay: Morphometric analysis, percentage of infarcted myocardium (Example 14); assay type: in vivo, rat; details: vs. placebo, FIG. 8
Protocol: MI was induced in female 6-month-old Fischer 344 rats by permanent ligation of left ventricular (LV) anterior descending coronary artery. Animals were randomly assigned to receive placebo or one of the following GHRH agonists (MR-356, MR-361, MR-367, MR-403, MR-404, MR-409 and MR-502) starting 2 hours post-surgery. All treatment (50 μg/kg) was given subcutaneously twice daily for 4 weeks. The Institutional Animal Care and Use committee of the University of Miami approved all protocols and experimental procedures.
Slides were prepared with H&E and Masson's trichrome stain to assess cardiac structure and the presence and extent of myocardial scar, respectively. The percentage of infarcted myocardium was calculated.

Row | SMILES | MI size (%) [1] [%] | Relative potency, 5 min [2] | Relative potency, 15 min [2] | Serum GH level at selected time after injection (ng/ml), 0 min [2] [ng/mL] | Serum GH level at selected time after injection (ng/ml), 5 min [2] [ng/mL] | Serum GH level at selected time after injection (ng/ml), 15 min [2] [ng/mL] | c-kit (positive cells in the heart) [3] | phospho H3 (positive cells in the heart) [3] | number of arterioles [3] | GH releasing potency in vivo relative to JI-38 (=1) ([4]; 5 min after) | GH releasing potency in vivo relative to JI-38 (=1) ([4]; 15 min after) | GH releasing potency in vivo relative to JI-38 (=1) ([4]; 30 min after) | Relative affinity (Binding potency) vs GHRH [5] | Relative affinity (Binding potency) vs JI-38 [5] | infarct size (MI %) ([6]; listed as MR-356) | IC50 ([5]; 125I-JV-1-42, human pituitary membranes, Table 5) [nM] | infarct size (MI %) [6]
1 | CCCC[C@H](NC(=O)[C@@H](NC(=O)[C@H](CC(=O)O)NC(=O)[C@H](CCC(N)=O)NC(=O)[C@H](CC(C)C)NC(=O)[C@H](CC(C)C)NC(=O)[C@H](CCCN)NC(=O)[C@H](CCCNC(=N)N)NC(=O)[C@H](C)NC(=O)[C@H](CO)NC(=O)[C@H](CC(C)C)NC(=O)[C@H](CCC(N)=O)NC(=O)[C@H](CC)NC(=O)[C@H](CC(C)C)NC(=O)[C@@H](NC(=O)[C@H](CCCN)NC(=O)[C@H](CCCNC(=N)N)NC(=O)[C@H](Cc1ccc(O)cc1)NC(=O)[C@H](CO)NC(=O)[C@H](CCC(N)=O)NC(=O)[C@@H](NC(=O)[C@H](Cc1ccccc1)NC(=O)[C@@H](NC(=O)[C@H](C)NC(=O)[C@H](CC(=O)O)NC(=O)[C@H](C)NC(=O)[C@H](Cc1ccc(O)cc1)NC)[C@@H](C)CC)[C@@H](C)O)C(C)C)[C@@H](C)CC)C(=O)N[C@@H](CC(=O)O)C(=O)NCCCCNC(=N)N [Peptide P-20356, [N—Me-Tyr^1, Gln^8, Orn^12, Abu^15, Orn^21, Nle^27, Asp^28, Agm^29]hGHRH(1-29) NH2] (H-[NMeY]ADAIFTQSYR[Orn]VL[Abu]QLSAR[Orn]LLQDI[Nle]D-Agmatine) | 37 ± 2.5 | 1.17 | 1.26 | 37.8 ± 5.7 | 632 ± 110 | 250 ± 58.1 | 59 ± 7.1 | 65 ± 9.3 | significantly increased | 1.07 | 0.91 | 1.22 | 406.0 | 171 | significantly attenuated; also recorded: substantial reductions | – | –
2 | CCCC[C@H](NC(=O)[C@@H](NC(=O)[C@H](CC(=O)O)NC(=O)[C@H](CCC(N)=O)NC(=O)[C@H](CC(C)C)NC(=O)[C@H](CC(C)C)NC(=O)[C@H](CCCN)NC(=O)[C@H](CCCNC(=N)N)NC(=O)[C@H](C)NC(=O)[C@H](CO)NC(=O)[C@H](CC(C)C)NC(=O)[C@H](CCC(N)=O)NC(=O)[C@H](CC)NC(=O)[C@H](CC(C)C)NC(=O)[C@@H](NC(=O)[C@H](CCCN)NC(=O)[C@H](CCCNC(=N)N)NC(=O)[C@H](Cc1ccc(O)cc1)NC(=O)[C@H](CO)NC(=O)[C@H](CCC(N)=O)NC(=O)[C@@H](NC(=O)[C@H](Cc1ccccc1)NC(=O)[C@@H](NC(=O)[C@H](C)NC(=O)[C@H](CC(=O)O)NC(=O)[C@H](C)NC(=O)CCc1ccc(O)cc1)[C@@H](C)CC)[C@@H](C)O)C(C)C)[C@@H](C)CC)C(=O)N[C@@H](CC(=O)O)C(=O)NCCCCNC(=N)N [JI-38, [Dat^1, Gln^8, Orn^12,21, Abu^15, Nle^27, Asp^28, Agm^29]hGHRH(1-29)NH2, reference compound] (Desaminotyrosyl-ADAIFTQSYR[Orn]VL[Abu]QLSAR[Orn]LLQDI[Nle]D-Agmatine) | 42 ± 1.3 | 1 | 1 | 48.0 ± 10.4 | 538 ± 58.3 | 198 ± 18.1 | 53 ± 6.7 | 71 ± 9.2 | significantly increased | – | – | – | 2.4 | 1 | – | 1.71 | significantly attenuated; also recorded: substantial reductions
